# Measured values reported in PubChem BioAssay (NCI).
#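 A five-concentration, 48-hour dose response in 96-well plates underlies each endpoint, interpolated linearly between surrounding concentrations. TGI denotes the concentration required for complete inhibition of growth.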
# Tests used:
# Test in all cases: DTP human tumour cell line panel, 48 h
# MDA-N = test system: MDA-N
# PC-3 prostate = test system: PC-3 prostate
# SK-MEL-2 melanoma = test system: SK-MEL-2 melanoma
# IGROV1 ovarian = test system: IGROV1 ovarian
# OVCAR-5 ovarian = test system: OVCAR-5 ovarian
# HOP-62 NSCLC = test system: HOP-62 NSCLC
# HS 578T breast = test system: HS 578T breast
# RXF 393 renal = test system: RXF 393 renal
# NCI-H460 lung = test system: NCI-H460 lung
# NCI-H226 lung = test system: NCI-H226 lung
# BT-549 breast = test system: BT-549 breast
# KM12 colon = test system: KM12 colon
# MDA-MB-435 = test system: MDA-MB-435
# SK-MEL-28 melanoma = test system: SK-MEL-28 melanoma
# COLO 205 colon = test system: COLO 205 colon
# LOX IMVI melanoma = test system: LOX IMVI melanoma
SMILES,TGI (MDA-N),TGI (PC-3 prostate),TGI (SK-MEL-2 melanoma),TGI (IGROV1 ovarian),TGI (OVCAR-5 ovarian),TGI (HOP-62 NSCLC),TGI (HS 578T breast),TGI (RXF 393 renal),TGI (NCI-H460 lung),TGI (NCI-H226 lung),TGI (BT-549 breast),TGI (KM12 colon),TGI (MDA-MB-435),TGI (SK-MEL-28 melanoma),TGI (COLO 205 colon),TGI (LOX IMVI melanoma)
CC1=NNC(=O)C1C1CC(c2c[nH]c3ccccc23)=NNC1=O (configuration not stated),> 100 µM,> 100 µM,> 100 µM,> 100 µM,> 100 µM,> 100 µM,> 100 µM,> 100 µM,> 100 µM,> 100 µM,> 100 µM,> 100 µM,> 100 µM,> 100 µM,> 100 µM,
CNC(=O)C1(N)c2ccccc2C=Cc2ccccc21,> 100 µM,> 100 µM,> 100 µM,> 100 µM,> 100 µM,> 100 µM,> 100 µM,,,> 100 µM,> 100 µM,> 100 µM,> 100 µM,> 100 µM,> 100 µM,> 100 µM
O=C(NC1=C(Cl)C(=O)c2ccccc2C1=O)c1ccc(F)cc1,12.9 µM,10.7 µM,,11.5 µM,16.5 µM,26.8 µM,64.7 µM,5.4 µM,10.6 µM,8.37 µM,14.7 µM,12.5 µM,14.2 µM,18.4 µM,8.33 µM,
COc1cc2c(cc1OC)C1C=NC(C2)c2cc(OC)c(OC)cc21 (configuration not stated),> 100 µM,> 100 µM,> 100 µM,> 100 µM,> 100 µM,> 100 µM,> 100 µM,,> 100 µM,> 100 µM,> 100 µM,> 100 µM,> 100 µM,> 100 µM,> 100 µM,> 100 µM
CN1c2ccccc2C(=O)NC12CCN(CCCC(=O)c1ccc(F)cc1)CC2,> 100 µM,> 100 µM,> 100 µM,> 100 µM,> 100 µM,> 100 µM,> 100 µM,> 100 µM,,> 100 µM,> 100 µM,> 100 µM,> 100 µM,> 100 µM,30.4 µM,
C/C(=N\Nc1ccc([N+](=O)[O-])cc1[N+](=O)[O-])c1sc(-n2nc(-c3ccccc3)cc2-c2ccccc2)nc1C,> 100 µM,,,> 100 µM,> 100 µM,> 100 µM,> 100 µM,,> 100 µM,> 100 µM,> 100 µM,> 100 µM,> 100 µM,> 100 µM,67.4 µM,63.9 µM
C=CC[C@@H](N)C(=O)N(C)[C@@H](C)[C@@H](O)c1ccccc1,> 100 µM,> 100 µM,> 100 µM,> 100 µM,,> 100 µM,> 100 µM,,> 100 µM,> 100 µM,> 100 µM,> 100 µM,> 100 µM,> 100 µM,> 100 µM,> 100 µM
CC(C)(C)OC(=O)NC(Cc1ccccc1)OCc1ccccc1 (configuration not stated),38.1 µM,26.7 µM,74.7 µM,> 10 µM,58.2 µM,37.8 µM,51.5 µM,35.1 µM,44.7 µM,34.4 µM,55.2 µM,37.4 µM,42.7 µM,33.1 µM,> 100 µM,
O=C(CCCN1CCC2(CC1)CC(c1ccccc1)OC2=O)c1ccc(F)cc1 (configuration not stated),> 100 µM,> 100 µM,> 100 µM,> 100 µM,> 100 µM,73.7 µM,95.2 µM,> 100 µM,> 100 µM,> 100 µM,,97.1 µM,> 100 µM,> 100 µM,35.4 µM,45.1 µM
CCN(CC)CC1CCCCN1CC(=O)N1c2ccccc2C(=O)Nc2cccnc21 (configuration not stated),> 100 µM,> 100 µM,> 100 µM,> 100 µM,> 100 µM,> 100 µM,> 100 µM,> 100 µM,> 100 µM,98.8 µM,,> 100 µM,> 100 µM,> 100 µM,64.6 µM,57.2 µM
CC1=NC(=Cc2cccc(Cl)c2)C(=O)N1n1c(-c2ccccc2)nc2ccccc2c1=O,> 100 µM,> 100 µM,,> 100 µM,,55.2 µM,> 100 µM,,46.5 µM,> 100 µM,> 100 µM,> 100 µM,> 100 µM,,> 100 µM,55.2 µM
C[n+]1ccc(/C2=C3\C=CC(=N3)/C(c3cc[n+](C)cc3)=c3/cc/c([nH]3)=C(\c3cc[n+](C)cc3)C3=N/C(=C(/c4cc[n+](C)cc4)C4C=CC2N4)C=C3)cc1,> 100 µM,,,> 100 µM,> 100 µM,> 100 µM,> 100 µM,> 100 µM,> 100 µM,> 100 µM,> 100 µM,> 100 µM,> 100 µM,> 100 µM,> 100 µM,> 100 µM
Cc1n[nH]c(=O)n1N1C(=O)CCCC1=O,> 100 µM,> 100 µM,> 100 µM,> 100 µM,> 100 µM,> 100 µM,> 100 µM,> 100 µM,,> 100 µM,> 100 µM,,> 100 µM,,> 100 µM,
